According to patent US4886817A, “Imidazolidinones as brain activators” (Tanabe Seiyaku Co., Ltd., priority 1986, dated 1989):

Assays:
[1] = Gastric juice secretion in pylorus ligated rats; type: in vivo; conditions: 30 mg/kg, intraperitoneal, 5 hours after administration
Description: (§1) In addition, Compound (I) and a salt thereof may have also an inhibitory effect on gastric juice secretion and may be used for therapy and prophylaxy of peptic ulcer. […] Further, the compound of the present invention is low in toxicity and has high safety as pharmaceuticals.

[2] = Spontaneous locomotion in mice which received apomorphine; type: in vivo; conditions: 45 mg/kg, oral; apomorphine 0.03 or 0.1 mg/kg, s.c.
Description: Compound (I) of the present invention and a salt thereof can also be used as antidepressants because it can effectively shorten the immobility time of mice during forced swimming thereof and also increase spontaneous locomotor activity.

Acute toxicity (LD50) = conditions: mouse, in vivo; oral, male Std/ddY mice, estimated 7 days after administration
Description: as §1

[3] = Survival time of mice under hypobaric hypoxia (closed container, reduced pressure); type: in vivo; conditions: 30 mg/kg (p.o.); pressure 165 mmHg
Description: (§2) The compound (I) of the present invention and a salt thereof are useful as a cerebral activator. More particularly, Compound (I) and a salt thereof can effectively prolong the survival time of mice suffering from KCN-induced cerebral anoxia or hypobaric hypoxia, and show potent protective action against brain ischemia. Compound (I) and a salt thereof can also improve KCN-induced cerebral energy metabolism disorders. Further, Compound (I) and a salt thereof improve scopolamine-induced amnesia, and show potent anticonvulsive, AChE (acetylchline esterase) inhibitory and GABA-mimetic or GABA-potentiative actions. […] Based on these therapeutic effects, Compound (I) and a salt thereof can be used as a cerebral metabolism activator and/or a nootropic drug.

[4] = KCN-induced cerebral energy metabolism disorders; type: in vivo
Description: as §2

[5] = Preventive effect on maximum electroshock-induced convulsion; type: in vivo, male Std/ddY mice; conditions: 100 mg/kg, oral, 1 hour before electroshock
Description: (Preventive effect on maximum electroshock-induced convulsion)
One hour after oral administration of a test compound to male Std/ddY mice, maximum electroshock (AC 900 V, 25 mA, 0.15 second) was delivered to said mice through corneal electrodes from an electrical stimulator.

SMILES	inhibition of tonic extensive convulsion induced by maximum electroshock [5]	also measured
O=C1N(C/C=C/C=C/c2ccccc2Cl)CCN1c1ccncc1 [(2E,4E)-1-[5-(2-chlorophenyl)-2,4-pentadienyl]-3-(4-pyridyl)-2-imidazolidinone]		decrease in gastric juice secretion [1]: ≥ 42%
O=C1N(C/C=C/c2ccccc2)CCN1c1cccnc1 [(E)-1-cinnamyl-3-(3-pyridyl)-2-imidazolidinone]		spontaneous locomotion in mice which received apomorphine [2]: significant increase; LD50 at 168 h (Acute toxicity (LD50)): > 1500 mg/kg; survival time of mice which suffered from hypobaric hypoxia [3]: significantly prolong the survival time; KCN-induced cerebral metabolism disorders [4]: improve the KCN-induced cerebral metabolism disorders; decrease in energy metabolism-relating substances (ATP, creatine-P, glucose or glycogen in the brain) induced by KCN [4]: inhibit the decrease
O=C1N(C/C=C/c2ccc(Cl)cc2)CCN1c1cccnc1 [compound 1, (E)-1-(4-chlorocinnamyl)-3-(3-pyridyl)-2-imidazolidinone]	completely inhibited	
O=C1N(C/C=C/c2ccc(Cl)cc2)CCN1c1ccncc1 [compound 2, (E)-1-(4-chlorocinnamyl)-3-(4-pyridyl)-2-imidazolidinone]	completely inhibited	
Cl.O=C1N(C/C=C/c2ccccc2)CCN1c1cccnc1 [compound 3, (E)-1-cinnamyl-3-(3-pyridyl)-2-imidazolidinone hydrochloride]	completely inhibited	decrease in gastric juice secretion [1]: ≥ 42%
O=C1N(C/C=C/c2ccccc2)CCN1c1ncccn1 [compound 4, (E)-1-cinnamyl-3-(2-pyrimidinyl)-2-imidazolidinone]	completely inhibited	
O=C1N(C/C=C/c2cccc(Cl)c2)CCN1c1ccncc1 [compound 5, (E)-1-(3-chlorocinnamyl)-3-(4-pyridyl)-2-imidazolidinone]	completely inhibited	
O=C1N(C/C=C/c2ccccc2Cl)CCN1c1ccncc1 [compound 6, (E)-1-(2-chlorocinnamyl)-3-(4-pyridyl)-2-imidazolidinone]	completely inhibited	
Cc1cccc(/C=C/CN2CCN(c3ccncc3)C2=O)c1 [compound 7, (E)-1-(3-methylcinnamyl)-3-(4-pyridyl)-2-imidazolidinone]	completely inhibited	
O=C1N(CCC/C=C/c2ccccc2)CCN1c1ccncc1 [compound 8, (E)-1-(5-phenyl-4-pentenyl)-3-(4-pyridyl)-2-imidazolidinone]	completely inhibited	
O=C1N(C/C=C\c2ccccc2)CCN1c1ccncc1 [compound 9, (Z)-1-cinnamyl-3-(4-pyridyl)-2-imidazolidinone]	completely inhibited	
